Reference: patent US20100041089A1, “IMPROVED METHOD FOR DETECTING CHEMICAL […]” (priority 2006, published 2010)

Test system: yeast genes (expressed mRNA)
Assay: DNA chip measurement of expressed mRNA of yeast genes after culture with a toxic chemical substance
Format: cell-based, Saccharomyces cerevisiae S288C
How it was run: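 Two-hour exposure of growing S. cerevisiae S288C (YPD, 25° C) to a sublethal toxicant preceded RNA isolation. Fluorescent cDNA was hybridized to a whole-genome array; a treated-to-untreated signal ratio of two or more was taken as significant.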

How did the “The level of expressed mRNA in the presence of chemical substance/The level of expressed mRNA in the absence of chemical substance” value (yeast gene YJL108C, cultured two hours with substance) turn out when `N#Cc1c(Cl)c(Cl)c(Cl)c(C#N)c1Cl` [(9), 2,4,5,6-Tetrachloro-1,3-benzenedicarbonitrile] was run?
Its value is 0.3.

And the “The level of expressed mRNA in the presence of chemical substance/The level of expressed mRNA in the absence of chemical substance” value (yeast gene YJL144W, cultured two hours with substance)?
The value was 14.6.

And the “The level of expressed mRNA in the presence of chemical substance/The level of expressed mRNA in the absence of chemical substance” value (yeast gene YJL149W, cultured two hours with substance)?
Its value is 1.5.

And the “The level of expressed mRNA in the presence of chemical substance/The level of expressed mRNA in the absence of chemical substance” value (yeast gene YJL151C, cultured two hours with substance)?
Its value is 0.5.

What about the “The level of expressed mRNA in the presence of chemical substance/The level of expressed mRNA in the absence of chemical substance” value (yeast gene YJL152W, cultured two hours with substance) of the same compound?
Its value is 0.3.

And the “The level of expressed mRNA in the presence of chemical substance/The level of expressed mRNA in the absence of chemical substance” value (yeast gene YJL161W, cultured two hours with substance)?
Its value is 3.1.

And the “The level of expressed mRNA in the presence of chemical substance/The level of expressed mRNA in the absence of chemical substance” value (yeast gene YJL163C, cultured two hours with substance)?
The value was 14.5.

What about the “The level of expressed mRNA in the presence of chemical substance/The level of expressed mRNA in the absence of chemical substance” value (yeast gene YJL171C, cultured two hours with substance) of the same compound?
Its value is 1.0.

What about the “The level of expressed mRNA in the presence of chemical substance/The level of expressed mRNA in the absence of chemical substance” value (yeast gene YJL186W, cultured two hours with substance) of the same compound?
Its value is 0.2.

And the “The level of expressed mRNA in the presence of chemical substance/The level of expressed mRNA in the absence of chemical substance” value (yeast gene YJR008W, cultured two hours with substance)?
The value was 1.8.

And the “The level of expressed mRNA in the presence of chemical substance/The level of expressed mRNA in the absence of chemical substance” value (yeast gene YJR074W, cultured two hours with substance)?
Its value is 3.7.

What about the “The level of expressed mRNA in the presence of chemical substance/The level of expressed mRNA in the absence of chemical substance” value (yeast gene YJR085C, cultured two hours with substance) of the same compound?
Its value is 3.7.

And the “The level of expressed mRNA in the presence of chemical substance/The level of expressed mRNA in the absence of chemical substance” value (yeast gene YJR155W)?
Its value is 38.2.

What about the “The level of expressed mRNA in the presence of chemical substance/The level of expressed mRNA in the absence of chemical substance” value (yeast gene YJR155W, cultured for two hours with substance) of the same compound?
The value was 38.2.

And the “The level of expressed mRNA in the presence of chemical substance/The level of expressed mRNA in the absence of chemical substance” value (yeast gene YKL071W, cultured two hours with substance)?
The value was 162.2.

What about the “The level of expressed mRNA in the presence of chemical substance/The level of expressed mRNA in the absence of chemical substance” value (yeast gene YKL086W, cultured two hours with substance) of the same compound?
The value was 8.2.

What about the “The level of expressed mRNA in the presence of chemical substance/The level of expressed mRNA in the absence of chemical substance” value (yeast gene YKL107W, cultured two hours with substance) of the same compound?
The value was 28.2.

What about the “The level of expressed mRNA in the presence of chemical substance/The level of expressed mRNA in the absence of chemical substance” value (yeast gene YKL151C, cultured two hours with substance) of the same compound?
The value was 3.3.

And the “The level of expressed mRNA in the presence of chemical substance/The level of expressed mRNA in the absence of chemical substance” value (yeast gene YKL153W, cultured two hours with substance)?
The value was 0.8.

What about the “The level of expressed mRNA in the presence of chemical substance/The level of expressed mRNA in the absence of chemical substance” value (yeast gene YKL195W, cultured two hours with substance) of the same compound?
Its value is 3.6.

What about the “The level of expressed mRNA in the presence of chemical substance/The level of expressed mRNA in the absence of chemical substance” value (yeast gene YKR091W, cultured two hours with substance) of the same compound?
The value was 1.0.

What about the “The level of expressed mRNA in the presence of chemical substance/The level of expressed mRNA in the absence of chemical substance” value (yeast gene YLL055W (transport facilitation protein gene)) of the same compound?
The value was 19.1.

And the “The level of expressed mRNA in the presence of chemical substance/The level of expressed mRNA in the absence of chemical substance” value (yeast gene YLL056C, cultured two hours with substance)?
The value was 58.8.

What about the “The level of expressed mRNA in the presence of chemical substance/The level of expressed mRNA in the absence of chemical substance” value (yeast gene YLL060C (stress protein genes)) of the same compound?
Its value is 13.0.

What about the “The level of expressed mRNA in the presence of chemical substance/The level of expressed mRNA in the absence of chemical substance” value (yeast gene YLL062C, cultured two hours with substance) of the same compound?
Its value is 14.9.

And the “The level of expressed mRNA in the presence of chemical substance/The level of expressed mRNA in the absence of chemical substance” value (yeast gene YLR031W, cultured two hours with substance)?
Its value is 0.9.

And the “The level of expressed mRNA in the presence of chemical substance/The level of expressed mRNA in the absence of chemical substance” value (yeast gene YLR054C, cultured two hours with substance)?
The value was 2.7.

What about the “The level of expressed mRNA in the presence of chemical substance/The level of expressed mRNA in the absence of chemical substance” value (yeast gene YLR149C, cultured two hours with substance) of the same compound?
Its value is 6.2.

What about the “The level of expressed mRNA in the presence of chemical substance/The level of expressed mRNA in the absence of chemical substance” value (yeast gene YLR152C, cultured two hours with substance) of the same compound?
The value was 0.6.

What about the “The level of expressed mRNA in the presence of chemical substance/The level of expressed mRNA in the absence of chemical substance” value (yeast gene YLR194C, cultured two hours with substance) of the same compound?
Its value is 0.9.

What about the “The level of expressed mRNA in the presence of chemical substance/The level of expressed mRNA in the absence of chemical substance” value (yeast gene YLR204W, cultured two hours with the substance) of the same compound?
The value was 1.4.

And the “The level of expressed mRNA in the presence of chemical substance/The level of expressed mRNA in the absence of chemical substance” value (yeast gene YLR205C, cultured two hours with substance)?
Its value is 1.5.

And the “The level of expressed mRNA in the presence of chemical substance/The level of expressed mRNA in the absence of chemical substance” value (yeast gene YLR324W, cultured two hours with substance)?
The value was 3.1.

What about the “The level of expressed mRNA in the presence of chemical substance/The level of expressed mRNA in the absence of chemical substance” value (yeast gene YLR350W, cultured two hours with substance) of the same compound?
Its value is 0.6.

What about the “The level of expressed mRNA in the presence of chemical substance/The level of expressed mRNA in the absence of chemical substance” value (yeast gene YLR387C, cultured two hours with substance) of the same compound?
The value was 7.8.

And the “The level of expressed mRNA in the presence of chemical substance/The level of expressed mRNA in the absence of chemical substance” value (yeast gene YLR460C, cultured two hours with substance)?
Its value is 13.9.

What about the “The level of expressed mRNA in the presence of chemical substance/The level of expressed mRNA in the absence of chemical substance” value (yeast gene YML117W, cultured two hours with substance) of the same compound?
Its value is 1.0.

What about the “The level of expressed mRNA in the presence of chemical substance/The level of expressed mRNA in the absence of chemical substance” value (yeast gene YMR009W, cultured two hours with substance) of the same compound?
Its value is 3.4.

And the “The level of expressed mRNA in the presence of chemical substance/The level of expressed mRNA in the absence of chemical substance” value (yeast gene YMR067C, cultured two hours with substance)?
Its value is 4.0.

What about the “The level of expressed mRNA in the presence of chemical substance/The level of expressed mRNA in the absence of chemical substance” value (yeast gene YMR090W, cultured two hours with substance) of the same compound?
The value was 16.7.

What about the “The level of expressed mRNA in the presence of chemical substance/The level of expressed mRNA in the absence of chemical substance” value (yeast gene YMR097C, cultured two hours with substance) of the same compound?
Its value is 2.1.

And the “The level of expressed mRNA in the presence of chemical substance/The level of expressed mRNA in the absence of chemical substance” value (yeast gene YMR102C, cultured two hours with substance)?
The value was 1.7.

What about the “The level of expressed mRNA in the presence of chemical substance/The level of expressed mRNA in the absence of chemical substance” value (yeast gene YMR107W, cultured two hours with substance) of the same compound?
The value was 6.0.

What about the “The level of expressed mRNA in the presence of chemical substance/The level of expressed mRNA in the absence of chemical substance” value (yeast gene YMR140W, cultured two hours with substance) of the same compound?
Its value is 1.8.

What about the “The level of expressed mRNA in the presence of chemical substance/The level of expressed mRNA in the absence of chemical substance” value (yeast gene YMR180C, cultured two hours with substance) of the same compound?
The value was 1.8.

What about the “The level of expressed mRNA in the presence of chemical substance/The level of expressed mRNA in the absence of chemical substance” value (yeast gene YMR184W, cultured two hours with substance) of the same compound?
The value was 2.1.

What about the “The level of expressed mRNA in the presence of chemical substance/The level of expressed mRNA in the absence of chemical substance” value (yeast gene YMR191W, cultured two hours with substance) of the same compound?
The value was 2.2.

What about the “The level of expressed mRNA in the presence of chemical substance/The level of expressed mRNA in the absence of chemical substance” value (yeast gene YMR195W, cultured two hours with substance) of the same compound?
The value was 0.2.

And the “The level of expressed mRNA in the presence of chemical substance/The level of expressed mRNA in the absence of chemical substance” value (yeast gene YMR295C, cultured two hours with substance)?
Its value is 1.0.

What about the “The level of expressed mRNA in the presence of chemical substance/The level of expressed mRNA in the absence of chemical substance” value (yeast gene YMR315W, cultured two hours with substance) of the same compound?
Its value is 2.4.
